# Experimental data published in patent publication US12616753B2, “HSP70 inhibitors and methods of using same” (THE WISTAR INSTITUTE, priority 2020, dated 2026).
# Assays:
# [1] = tested on: CRC cell lines (SW620, HT-29, HCT 116+/−p53, RKO, and LS411N); experiment: Alamar Blue cell viability assay, human CRC panel; assay type: cell-based; settings: SW620, 72 hours
# Protocol: FIGS. 4A-4F show AP-4-139B is efficacious as a single agent against human CRC in vitro and in vivo. FIG. 4A: Three CRC cell lines (HT-29, LS411N, and SW620) were treated with 10 μM of PET-16 or AP-4-139B for 48 hours. Cell were then subjected to viability assays using Trypan Blue exclusion. *** p<0.001. […] FIGS. 4B-4C: A panel of six CRC cell lines (SW620, HT-29, HCT 116+/−p53, RKO, and LS411N) were plated at a density of 1,000 cells per well in 96-well plates. The next day, cells were treated with the indicated inhibitors for 72 hours. Cells were then subjected to the Alamar Blue cell viability assays. Shown are representative IC50 values of an average of six technical replicates and two biological replicates. FIG. 4D: 2.5×10^6 HT-29 cells were injected subcutaneously into the right flank of NSG mice. Once tumors reached an approximate volume of 100 mm^3, mice were separated randomly into two groups: control vs. AP-4-139B. Mice were treated with 12.5 mg/kg AP-4-139B three times a week. All mice were euthanized 22 days after the start of treatment. Tumor volumes were recorded using digital calipers and using the formula v=length×width^2×0.52. *** p<0.001. n=10 mice per group. FIG. 4E: Immunohistochemistry (IHC) analysis of HT-29 xenograft tumors treated with AP-4-139B. Shown are representative images (4-6 random fields of view per condition) of Ki67 (proliferation) and Cleaved Lamin A (cell death). n=4 mice per group. Scale bar=100 μm. Respective IgG antibody was used as the negative control.
# [2] = tested on: MC38 and HT-29 cells; experiment: Extracellular ATP release (CellTiter-Glo); assay type: cell-based; settings: MC38 cells, increasing concentrations, 3 hours
# Protocol: FIG. 6A: 1×10^6 MC38 cells were injected subcutaneously into the right flank of 6-8-week-old male C57Bl/6 mice. Once tumors reached an approximate volume of 100 mm^3, mice were treated with AP-4-139B (10 mg/kg) every 48 hours. 20 days after the start of treatment, tumors were excised, weighed, minced and digested. Tumor-infiltrating and splenic conventional CD4 (cCD4) (Live CD45^+ DUMP^− CD3^+CD4^+Foxp3^−), Tregs (Live CD45^+ DUMP^− CD3^+CD4^+Foxp3^+), CD8 (Live CD45^+ DUMP^− CD3^+CD8^+) T-cells, and Dendritic Cells (Live CD45^+ DUMP^− CD3^−CD11c^+MHCII^+) numbers were assessed by flow cytometry. * p<0.05, n.s. not significant. n=8 mice per group. FIG. 6B: MC38 and HT-29 cells were treated with the indicated concentrations of AP-4-139B for either 8 or 24 hours; media was collected and subjected to WB for HMGB1. Data shown are representative of three technical replicates. FIG. 6C: MC38 and HT-29 cells were treated with the indicated concentrations of AP-4-139B for three hours and then assayed for extracellular ATP release. Each graphical representation indicates the mean±the standard deviation of three independent experiments relative to control (DMSO-treated) cells.
# FIG. 6D: MC38 cells were treated with 5 μM AP-4-139B for 24 hours and subjected to flow cytometry, using Alexa488-tagged calreticulin antibody. *** p<0.001, n=4 biological replicates performed in duplicate. FIG. 6E: MC38 cells were treated with increasing concentrations of AP-4-139B, G-TPP, 17-AAG or Metformin for 3 hours and then assayed for extracellular ATP release. Three independent cultures were assayed for each treatment, and DMSO-treated cells were used as internal controls. Error bars represent standard deviation (SD).
# The XF Cell Mito Stress Test was performed. Briefly, HT-29 (10,000 cells/well), IMR90 (15,000 cells/well), and 1205Lu (15,000 cells/well) were plated in Seahorse 96-well cell culture microplates, treated with the respective inhibitors for 24 hours, and subjected to the Seahorse XF Cell Mito Stress Test, according to the manufacturer's protocol (Agilent Technologies). For extracellular HMGB1 release, 1×10^6 MC38 cells were plated in 10-cm dishes. The next day, cells were treated with the indicated concentrations of AP-4-139B for 8 or 24 hours in serum-free media. Media was collected and spun down at 2,000 rpm for 5 minutes to pellet any remaining cells or debris. Media was then transferred to Amicon Ultra 15, 10K tubes and spun down at 4,000 rpm for 45 minutes, according to the manufacturer's protocol. […] For extracellular ATP release, ATP was measured using the CellTiter-Glo Kit (Promega catalog #G7570). […] 10 μl of CellTiter-Glo Reaction Mix was then mixed with 10 μl of culture media; the luminescence signal was detected using a luminometer.
# [3] = molecular target: N-terminal HIS tagged HSP70 (Homo sapiens, UniProt P0DMV8); experiment: Small molecule binding to HSP70 using SPR (Biacore T200)
# Protocol: SPR experiments were conducted using the Biacore T200. Approximately 20,000 RU of N-terminal HIS tagged HSP70 was immobilized on a multi-dentate NTA derivatized linear carboxylate sensor chip (NICH1500M, Xantec Bioanalytics). The running buffer was PBS containing 2 mM MgCl2, 0.05% Tween, and 5% DMSO. Test compounds were diluted at 20× final concentration in 100% DMSO and then diluted into running buffer without DMSO so that the DMSO concentrations in both the sample and the running buffer were similar. Flow rate was 30 μL/min, contact time for each sample concentration was 30 seconds, followed by a 60 second dissociation time. Data were analyzed using the Biacore evaluation software and the resulting sensograms exported and re-plotted in GraphPad Prism.
# The next studies sought to determine whether AP-4-139B interacts directly with HSP70. To accomplish this, full-length His-tagged human HSP70 was used, and it was immobilized on a high affinity poly-Ni-NTA sensor chip for surface plasmon resonance experiments on a Biacore T200. This HSP70-loaded chip was incubated with AP-4-139B or the negative control VY-3-277. As a positive control the adenosine-derived HSP70 inhibitor Ver-155008 was used (Massey et al., Cancer Chemother Pharmacol. 2010 August; 66(3):535-45).
# [4] = molecular target: T1, full length human HSP70 (Homo sapiens, UniProt P0DMV8); experiment: HSP70 mediated ATPase assay (Transcreener ADP-FI); assay type: biochemical
# T1 construct: Five μL of 30 nM full length human HSP70 in assay buffer
# Protocol: FIGS. 1A-1D show ATPase inhibition and direct binding of a novel HSP70 inhibitor. FIG. 1A: Compounds AP-3-97 and AP-4-139B are direct inhibitors of HSP70. HSP70 mediated ATPase activity was assessed using the TRANSCREENER® ADP-FI assay. Five microliters of 30 nM purified human HSP70 in assay buffer was added to test compounds for 30 minutes, followed by addition of excess ATP. After 15 minutes, reactions were stopped and fluorescence was assessed on a plate reader. Data are normalized to percent inhibition, where 100% is the value in the absence of HSP70, and 0% is the value in the presence of HSP70. Compounds shown include PET-16 (positive control) and the novel HSP70 inhibitors AP-3-97 and AP-4-139B. VY-3-277 was used as a negative control. FIG. 1B: Compound AP-4-139B binds HSP70. Whole cell extracts (WCE) from H1299 cells were incubated with 10 μM Biotin or with a Biotin-labeled variant of AP-4-139B (Biotin-AP-4-139B) for 5 hours. Biotin-AP-4-139B containing complexes were captured using NeutrAvidin resins and separated by SDS-PAGE. The Coomassie-stained protein band of approximately 70 kDa was excised and subjected to tryptic digestion and liquid chromatography-tandem mass spectrometry, and identified to be HSP70. FIG. 1C: H1299 cells were pre-treated with 10 μM of VY-3-277, PET-16, or AP-4-139B for 1 hour prior to the addition of 10 μM Biotin-AP-4-139B for 5 hours. Biotin-AP-4-139B containing complexes were captured by NeutrAvidin resins and immunoblotted using the indicated antibodies following SDS-PAGE. Whole cell extracts (WCE) were examined for the expression of HSP70 (input) and GRP75 (input) by Western blot analysis. FIG. 1D: Compound AP-4-139B directly binds purified human HSP70. […] Data were analyzed using the evaluation software from Biacore and the resulting sensograms were exported and re-plotted in GraphPad Prism.
# HSP70 mediated ATPase activity was measured using the Transcreener® ADP-FI assay (BellBrook Labs). […] After 30 minutes, fluorescence at 560/620 nm was measured using the Envision plate reader. […]
# T1 sequence (P0DMV8 whole entry): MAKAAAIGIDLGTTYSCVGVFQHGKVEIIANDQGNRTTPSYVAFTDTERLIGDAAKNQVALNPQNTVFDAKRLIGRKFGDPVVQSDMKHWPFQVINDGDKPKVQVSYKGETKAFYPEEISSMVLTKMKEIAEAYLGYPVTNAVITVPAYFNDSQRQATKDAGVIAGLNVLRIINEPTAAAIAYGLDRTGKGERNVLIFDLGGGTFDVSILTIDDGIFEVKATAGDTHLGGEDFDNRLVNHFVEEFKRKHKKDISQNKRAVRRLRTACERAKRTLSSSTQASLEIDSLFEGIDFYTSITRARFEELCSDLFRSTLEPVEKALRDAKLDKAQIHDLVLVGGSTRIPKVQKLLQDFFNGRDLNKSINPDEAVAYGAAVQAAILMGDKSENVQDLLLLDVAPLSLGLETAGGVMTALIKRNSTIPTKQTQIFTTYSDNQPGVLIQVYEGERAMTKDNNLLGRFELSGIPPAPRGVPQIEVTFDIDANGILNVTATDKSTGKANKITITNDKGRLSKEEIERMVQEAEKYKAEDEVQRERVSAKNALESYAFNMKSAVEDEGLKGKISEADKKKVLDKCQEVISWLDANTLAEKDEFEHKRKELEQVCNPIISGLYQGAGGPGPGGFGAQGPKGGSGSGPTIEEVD
# Chain of N-terminal HIS tagged HSP70 (P0DMV8 whole entry): as above
Structure (SMILES),sensitivity of SW620 cells [1],"ATP release, comparison of compounds [2]",also measured
"O=c1[nH]cc(F)c(=O)[nH]1 [5-FU, 5-fluoro-uracil]",highly resistant,–,–
"CN(C)C(=N)N=C(N)N [metformin, reference compound]",–,"induced ATP release, albeit to a lesser extent",–
"C=CCNC1=C2C[C@@H](C)C[C@H](OC)[C@H](O)[C@@H](C)/C=C(\C)[C@H](OC(N)=O)[C@@H](OC)/C=C\C=C(/C)C(=O)NC(=CC1=O)C2=O [17-AAG, reference compound]",–,"induced ATP release, albeit to a lesser extent",–
"N#Cc1ccc(COC[C@H]2O[C@@H](n3c(NCc4ccc(Cl)c(Cl)c4)nc4c(N)ncnc43)[C@H](O)[C@@H]2O)cc1 [Ver-155008, reference compound]",–,–,binding to sensor chips loaded with HSP70 [3]: reproducibly bound in concentration-dependent manner
O=C1[O][Pt]2([NH][C@@H]3CCCC[C@H]3[NH]2)[O]C1=O [oxaliplatin],highly resistant,–,–
"O=S(=O)(NCCCCCC[P+](c1ccccc1)(c1ccccc1)c1ccccc1)c1ccc2c(c1)oc1ccccc12 [AP-3-97, (6-(Dibenzo[b,d]furan-3-sulfonamido)hexyl)triphenylphosphonium bromide]",–,–,inhibition of HSP70 ATPase activity (in words) [4]: markedly superior potency
